pIC50: −log10 of the molar value. Like-named read-outs stand apart in the source and are kept apart here.
Molecular target: T1, mushroom tyrosinase
T1 construct: mushroom tyrosinase (Sigma T-7755)
Test: Mushroom Tyrosinase Assay
Format: biochemical
Settings: L-DOPA substrate, pH 7.0, absorbency 475 nm, vs ethanol control
Procedure: Mushroom tyrosinase inhibition is indicative of reduction in melanin synthesis, thereby showing skin lightening effect.
Into each well of a 96-well plate, 150 microliters of phosphate buffer (100 mM, pH 7.0), 10 microliters of L-DOPA (L-3, 4-Dihydroxyphenylalanine, 10 mM), and 20 microliters of skin lightening agent (dissolved in ethanol, which is the control) were added. Following an initial measurement of background absorbency at 475-nm, 20 microliters of mushroom tyrosinase (Sigma T-7755; 6050 units/ml) was added and incubated at room temperature.
Absorbency is read at 475-nm over the following time points: 0, 2, 4, and 6.5 minutes. The data is plotted as 475-nm absorbency vs. time (minutes) and the slope of the line is calculated (ΔAbs 475 nm/min).

[1] = Experiment 1, read-out: IC50 (Concentration) Experiment 1
[2] = Experiment 2, read-out: IC50 (Concentration) Experiment 2

Row | SMILES | pIC50 [1] | pIC50 [2]
1 | Oc1ccc(C2SCCS2)c(O)c1 [5-member Di-Thianyl Resorcinol, 4-[2′-(1′,3′-dithiacyclopenty)]-1,3-dihydroxybenzene] | 5.42 | 5.60
2 | CCc1ccc(O)cc1O [4-Ethyl Resorcinol, reference compound] | 6.26 | 6.40
3 | Oc1ccc(C2SCCCS2)c(O)c1 [6-member Di-Thianyl Resorcinol, 4-[2′-(1′,3′-dithiacyclohexy)]-1,3-dihydroxybenzene] | 5.77 | 6.00
